Measurements as given in US20250188427A1, “METHOD OF PRODUCING TARGET VIRUS AND CULTURE COMPOSITION” (FUJIFILM Corporation, priority 2022, published 2025).

Test system: AAV producer cell (HEK293)
Assay: AAV titer by ddPCR, JQ1 treatment with and without wash out (FIG. 4)
Assay type: cell-based, human
Details: JQ1 4 μmol/L for 24 hours, medium exchanged to medium without JQ1 (with doxycycline 0.5 μg/mL), recovered after further 48 hours; versus 72 hours JQ1
Protocol: The HEK cell culture solution, which had been cultured for 72 hours after the gene introduction under the conditions of 37° C. and 8% CO2, was collected, and the cells were disrupted by freezing and thawing at −80° C. Then, the supernatant was collected by centrifugation at 13,800×g, 2 mmol/L (final concentration) MgCl2, and 25 U/mL Benzonase was added thereto, and a reaction was carried out at 37° C. for 2 hours to digest gDNA (genomic DNA) and residual plasmid. The sample after the reaction was incubated at 95° C. for 15 minutes, 70° C. for 3 minutes, 40° C. for 3 minutes, and 20° C. for 3 minutes in this order, to inactivate Benzonase, and the reactant was used as a ddPCR (Droplet Digital PCR) sample. […]. The sequences of the seq18, seq19, and seq20 are set forth in SEQ ID NOs: 18 to 20 in the sequence list.
In ddPCR, droplets were formed from the prepared solution using a droplet forming apparatus, and subsequently incubated at 95° C. for 10 minutes, 94° C. for 30 seconds, and 55° C. in this order for 40 cycles, and then incubated at 98° C. for 10 minutes. Measurement was performed using a droplet reader, and the AAV genomic titer (vg/mL) was calculated.
Furthermore, the produced AAV producer cell was seeded at 5×10^5 cells/mL and incubated for 6 hours, and then doxycycline (final concentration: 0.5 μg/mL) and JQ1 (final concentration: 4 μmol/L) were added. […]

## Cc1sc2c(c1C)C(c1ccc(Cl)cc1)=N[C@@H](CC(=O)OC(C)(C)C)c1nnc(C)n1-2 [(+)-JQ1, (S)-(+)-tert-butyl 2-(4-(4-chlorophenyl)-2,3,9-trimethyl-6H-thieno[3,2-f][1,2,4]triazolo[4,3-a][1,4]diazepin-6-yl)acetate]
  AAV titer per cell: further improved
